Laboratory results taken from patent US20040023884A1, “Biologically active peptides from functional domains of bactericidal/permeability-increasing protein and uses thereof” (priority 1993, published 2004).
Square brackets hold non-standard residues; d marks the D form. Ends that are not written are not given here. 1Nal = N[C@@H](Cc1cccc2ccccc12)C(=O)O; d1Nal = N[C@H](Cc1cccc2ccccc12)C(=O)O; 3Pal = N[C@@H](Cc1cccnc1)C(=O)O

Key:
[1] = system: rough mutant E. coli J5 bacteria; assay: Radial diffusion bactericidal assay, E. coli J5; type: cell-based; conditions: radial diffusion; for pmol added to well to achieve a 30 mm^2 bactericidal zone, E. coli J5: PROBIT analysis, E. coli J5 (rough)
Protocol: BPI proteolytic fragments produced according to Example 1 were screened for bactericidal effects using rough mutant E. coli J5 bacteria in a radial diffusion assay. Specifically, an overnight culture of E. coli J5 was diluted 1:50 into fresh tryptic soy broth and incubated for 3 hours at 37° C. to attain log phase growth of the culture. Bacteria were then pelleted at 3,000 rpm for 5 minutes in a Sorvall RT6000B centrifuge (Sorvall Instruments, Newton, Conn.). 5 mL of 10 mM sodium phosphate buffer (pH 7.4) was added and the preparation was re-pelleted. […] The bacteria were diluted to 4×10^6 CFU/mL in 10 mL of molten underlayer agarose (at approximately 45° C.) and inverted repeatedly to mix in 15 mL polypropylene tubes conventionally used for this purpose.
The entire contents of such tubes were then poured into a level square petri dish and distributed evenly by rocking the dish side-to-side. […] A series of wells were then punched into the hardened agarose using a sterile 3 mm punch attached to a vacuum apparatus. The punch was sterilized with 100% alcohol and allowed to air dry prior to use to avoid contaminating the bacterial culture.
5 or 10 μL of each of the BPI fragments were carefully pipetted into each well. As a negative control, dilution buffer (pH 8.3) was added to a separate well, and rBPI23 at concentrations of 5 μg/mL and 1 μg/mL were also added as positive controls. Each plate was incubated at 37° C. for 3 hours, and then 10 mL of molten overlayer agarose (at approximately 45° C.) was added into the level petri dish, allowed to harden and incubated overnight at 37° C. […] The bacterial zones were measured with a micrometer.

[2] = 3H-heparin binding assay (affinity and capacity); conditions: for Heparin Capacity: heparin bound at saturation; for Kd: read-out: Heparin Affinity
Protocol: Briefly, each fragment was added to wells of a 96-well microtiter plate having a polyvinylidene difluoride membrane (Immunobilon-P, Millipore, Bedford, Mass.) disposed at the bottom of the wells. […] Positive control wells contained varying amounts of rBPI23. […] DuPont-NEN, Wilmington, Del.) were made in the blocking buffer and incubated in the BPI peptide-containing wells for one hour at 4° C. The unbound heparin was aspirated and the wells were washed three times with blocking buffer, dried and removed for quantitation in a liquid scintillation counter (Model 1217, LKB, Gaithersburg, Md.). Although BSA in the blocking buffer did show a low affinity and capacity to bind heparin, this was considered physiologically irrelevant and the background was routinely subtracted from the test compound signal.

[3] = system: E. coli 0111:B4 (smooth) bacteria; assay: Radial diffusion bactericidal assay, E. coli 0111:B4; type: cell-based; conditions: radial diffusion; PROBIT analysis; E. coli O111:B4 (smooth)
Staphylococcus aureus = assay: Radial diffusion bactericidal assay, Staphylococcus aureus; type: cell-based; conditions: radial diffusion; PROBIT analysis; S. aureus

| Substance | pmol added to well to achieve a 30 mm^2 bactericidal zone, E. coli J5 [1] | Heparin Capacity [2] [ng] | Kd [2] [nM] | pmol added to well to achieve a 30 mm^2 bactericidal zone, E. coli O111:B4 [3] | pmol added to well to achieve a 30 mm^2 bactericidal zone, S. aureus (Staphylococcus aureus) | bactericidal activity (in words) ([1]; E. coli J5) | heparin binding capacity (in words) [2] |
| --- | --- | --- | --- | --- | --- | --- | --- |
| ADADIKISGICWKAQKRFLK [BPI.71] | 2,296.94 pmol | 158.9 | 75.6 | b (no detectable activity up to 5 μg/well) | b (no detectable activity up to 5 μg/well) | – | – |
| CIKISGKWKAQKRFLK [BPI.58] | 1,050.11 pmol | 231.2 | 194 | b (no detectable activity up to 5 μg/well) | b (no detectable activity up to 5 μg/well) | highly bactericidal | extremely high heparin capacity |
| GWLIQLFHKKIESALRNKMNS [BPI.55] | 299.36 pmol | 166.1 | 368 | 3,702.60 pmol | 28,204.45 pmol | – | – |
| IAISGKWKAQKRFLA [BPI.60] | 3,782.80 pmol | 120.3 | 64.8 | b (no detectable activity up to 5 μg/well) | b (no detectable activity up to 5 μg/well) | – | – |
| IKISGAWAAQKRFLK [BPI.59] | 3,718.00 pmol | 106.7 | 175 | b (no detectable activity up to 5 μg/well) | b (no detectable activity up to 5 μg/well) | – | – |
| IKISGKAβ-(1-naphthyl)KAQKRFLK (IKISGK[1Nal]KAQKRFLK) [BPI.67] | 2,424.30 pmol | 250.4 | 108 | b (no detectable activity up to 5 μg/well) | b (no detectable activity up to 5 μg/well) | – | – |
| IKISGKAβ-(3-pyridyl)KAQKRFLK (IKISGK[3Pal]KAQKRFLK) [BPI.70] | b (no detectable activity up to 5 μg/well) | 59.2 | 145 | b (no detectable activity up to 5 μg/well) | b (no detectable activity up to 5 μg/well) | – | – |
| IKISGKFKAQKRFLK [BPI.61] | 86,541.00 pmol | 85.2 | 58.3 | b (no detectable activity up to 5 μg/well) | b (no detectable activity up to 5 μg/well) | – | – |
| IKISGKWDKAQKRFLK [BPI.66] | 5,846.50 pmol | 111.6 | 296 | b (no detectable activity up to 5 μg/well) | b (no detectable activity up to 5 μg/well) | – | – |
| IKISGKWKAKKRFLK [BPI.79] | 5,827.30 pmol | 110.2 | 199 | b (no detectable activity up to 5 μg/well) | b (no detectable activity up to 5 μg/well) | – | – |
| KSKVGAD-β-(1-naphthyl)LIQLFHKK (KSKVG[d1Nal]LIQLFHKK) [BPI.129] | 1,685.10 pmol | – | – | b (no detectable activity up to 5 μg/well) | b (no detectable activity up to 5 μg/well) | – | – |
| KSKVGFDLIQLPHKK [BPI.128] | 2,271.14 pmol | – | – | b (no detectable activity up to 5 μg/well) | b (no detectable activity up to 5 μg/well) | – | – |
| KSKVGFLIQLFHKK [BPI.127] | 406.01 pmol | – | – | b (no detectable activity up to 5 μg/well) | b (no detectable activity up to 5 μg/well) | – | – |
| KSKVGW(p-amino)LIFLFHKK (KSKVG[p‑amino‑tryptophan]LIFLFHKK) [BPI.123] | 247.20 pmol | – | – | 6,651.23 pmol | b (no detectable activity up to 5 μg/well) | – | – |
| KSKVGWDLIQLFHKK [BPI.126] | 1,979.97 pmol | – | – | b (no detectable activity up to 5 μg/well) | b (no detectable activity up to 5 μg/well) | – | – |
| KSKVGWLIQFFHKK [BPI.113] | 270.66 pmol | – | – | 8,671.73 pmol | b (no detectable activity up to 5 μg/well) | – | – |
| KSKVGWLIQLAβ-(1-naphthyl)HKK (KSKVGWLIQL[1Nal]HKK) [BPI.109] | 308.60 pmol | – | – | 44,875.41 pmol | b (no detectable activity up to 5 μg/well) | – | – |
| KSKVGWLIQLFAβ-(1-naphthyl)KK (KSKVGWLIQLF[1Nal]KK) [BPI.110] | 812.33 pmol | – | – | 7,952.04 pmol | b (no detectable activity up to 5 μg/well) | – | – |
| KSKVGWLIQLFHKAβ-(1-naphthyl) (KSKVGWLIQLFHK[1Nal]) [BPI.111] | 969.00 pmol | – | – | 7,232.08 pmol | 12,467.42 pmol | – | – |
| KSKVGWLIQLFHKW [BPI.108] | 661.05 pmol | – | – | 306,965.11 pmol | 1,413,131,872.57 pmol | – | – |
| KSKVGWLIQLFWKK [BPI.107] | 384.67 pmol | – | – | 4,665.64 pmol | b (no detectable activity up to 5 μg/well) | – | – |
| KSKVGWLISLFHKK [BPI.104] | 385.85 pmol | – | – | 1,376.42 pmol | 27,933.64 pmol | – | – |
| KSKVGWLITLFHKK [BPI.106] | 427.12 pmol | – | – | 3,413.80 pmol | b (no detectable activity up to 5 μg/well) | – | – |
| KSKVGWLIYLFHKK [BPI.125] | 428.85 pmol | – | – | 11,306.79 pmol | b (no detectable activity up to 5 μg/well) | – | – |
| KSKVKAβ-(1-naphthyl)LIQLFHKK (KSKVK[1Nal]LIQLFHKK) [BPI.116] | 73.82 pmol | – | – | 37,539.59 pmol | b (no detectable activity up to 5 μg/well) | – | – |
| KSKVKWLIQLWHKK [BPI.124] | 91.23 pmol | – | – | 3,916.32 pmol | b (no detectable activity up to 5 μg/well) | – | – |
| KWQLRSKGKIKIFKA [BPI.114] | 1,696.20 pmol | – | – | b (no detectable activity up to 5 μg/well) | b (no detectable activity up to 5 μg/well) | – | – |
